US9440913B2, “Dihydroxybenzene derivatives and antiprotozoal agent comprising same as active ingredient” (NAI INC., priority 2010, dated 2016)

How the values were obtained:
[1] = target: T1, recombinant Trypanosome AOX (TAO) enzyme (Trypanosoma brucei brucei, UniProt Q26710); test: TAO enzyme inhibition (quinol oxidase activity, ubiquinol-1 substrate); format: biochemical, T. brucei brucei; conditions: TAO-expressing E. coli membrane fraction, 25° C., ubiquinol-1, absorbance at 278 nm
T1 construct: made in house; host or cells: Escherichia coli (membrane fraction)
Procedure: Escherichia coli membrane fractions that express TAO by a plasmid harboring TAO cDNA cloned from T. brucei brucei (Fukai, Comparative Biochemistry & Physiology, 124, 141-148, 1999) were used as a recombinant Trypanosome AOX (TAO) enzyme. 50 mM Tris-HCl (pH 7.5), TAO-expressing membrane fraction (0.35 ng), and […] of an inhibitor were mixed in a 1 mL cuvette, and the mixture was incubated at 25° C. for 4 minutes. Ubiquinol-1 as a substrate was then added to the mixture to initiated the reaction, and change in absorbance at 278 nm was monitored (Shimadzu UV-3000, molar absorption coefficient ε=15 cm^−1 mM^−1).

T. b. rhodesiense IL1501 = test: Antiprotozoal effect, MIC measurement in HMI-9 culture; format: cell-based; conditions: bloodstream forms, 18 + 6 hours culture
Procedure: T. b. rhodesiense IL1501, the human infectious protozoan that causes acute symptoms, was used as a Trypanosomatid protozoan. The bloodstream forms of protozoan can be cultured in a HMI-9 culture medium (Hirumi, 1989). The protozoan was always cultured at a temperature of 37° C. in the presence of 5% CO2.
In a microtiter plate (96-well, FALCON 3072), HMI-9 culture medium and HMI-9 culture medium plus glycerol added to make a final concentration of 8.33 mM are separately prepared. 89 μL of the preparation are put into only the first well, and a 60 μL aliquot of each the other wells. 1 μL of a solution of AF or a AF derivative dissolved in DMSO was added to the first well, and was then suspended. A 30 μL aliquot of the suspension was then collected, was transferred to the second well, and was suspended. These operations were repeated in this order to prepare a three-fold dilution series of drug. A 40 μL aliquot of a protozoan culture was added to each well to make a final concentration of 5×10^4 cells/well (a final concentration of glycerol of 5 mM) followed by 18-hours culturing under conditions of 37° C. and 5% CO2. (For EC50 measurement, a 10 μL aliquot of Alamar Blue was added to each well), culturing was carried out under the same conditions for 6 more hours, surviving protozoans were visually observed with a microscope. The concentration at which no motile surviving protozoan was observed was defined as MIC.

[2] = Trypanosoma brucei, RHODESIENSE, 24 h, Glycerol (+), final concentration of glycerol of 5 mM
[3] = Trypanosoma brucei, RHODESIENSE, 24 h, Glycerol (−)

T1 sequence (Q26710 whole entry): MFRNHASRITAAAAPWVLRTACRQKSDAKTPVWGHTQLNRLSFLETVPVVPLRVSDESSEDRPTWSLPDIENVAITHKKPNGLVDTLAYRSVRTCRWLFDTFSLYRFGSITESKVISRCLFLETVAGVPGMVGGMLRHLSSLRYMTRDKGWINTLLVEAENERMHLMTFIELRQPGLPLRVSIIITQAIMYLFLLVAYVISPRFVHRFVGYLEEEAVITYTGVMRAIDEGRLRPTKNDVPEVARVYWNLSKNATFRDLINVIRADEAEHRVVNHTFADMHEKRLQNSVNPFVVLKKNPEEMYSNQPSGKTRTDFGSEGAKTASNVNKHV

SMILES: Cc1c(Cl)c(O)c(CCCCCCCCCOC(=O)C(C)C)c(O)c1C=O [Compound 215-13-OCOiPr, 9-(3-Chloro-5-formyl-2,6-dihydroxy-4-methylphenyl)nonyl isobutylate]
- IC50 [1]: 0.3 nM

SMILES: Cc1c(Cl)c(O)c(C/C=C/CCCC/C=C/C(=O)C(C)(C)C)c(O)c1C=O [Compound 288-12-Piv, 3-Chloro-4,6-dihydroxy-5-((E,E)-11,11-dimethyl-10-oxo-2,8-dodecadienyl)-2-methylbenzaldehyde]
- IC50 [1]: 0.74 nM

SMILES: C/C(=C\Cc1c(O)c(Cl)c(C)c(C=O)c1O)CC/C=C/COC(=O)C(C)(C)C [Compound 289-12-OPiv, (2E,6E)-8-(3-Chloro-5-formyl-2,6-dihydroxy-4-methylphenyl)-6-methyl-2,6-octadienyl pivalate]
- IC50 [1]: 0.2 nM

SMILES: CC(=O)c1cc(Cl)c(O)c(CCCCCCCOC(=O)C(C)(C)C)c1O [Compound 178-11-OPiv, 7-(3-Acetyl-5-chloro-2,6-dihydroxyphenyl)heptyl pivalate]
- melting point: 48 °C

SMILES: CC(=O)c1c(C)c(Cl)c(O)c(C/C=C(\C)CC/C=C(\C)C2CC(=O)C(C)(C)O2)c1O (stereo not drawn) [Compound 214, 5-Chloro-2,4-dihydroxy-6-methyl-3-[(2E,6E)-7-(5,5-dimethyl-4-oxotetrahydrohuran-2-yl)-3,7-dimethyl-2,6-heptadienyl]acetophenone]
- IC50 [1]: 0.3 nM

SMILES: C/C(=C\COC(=O)C(C)(C)C)CC/C(C)=C/Cc1c(O)c(Cl)c(C)c(C=O)c1O [Compound 287-12-OPiv, (2E,6E)-8-(3-Chloro-5-formyl-2,6-dihydroxy-4-methylphenyl)-3,6-dimethyl-2,6-octadienyl pivalate]
- IC50 [1]: 0.36 nM

SMILES: CC(=O)c1c(C)c(Cl)c(O)c(CCCCCCCOC(=O)C(C)(C)C)c1O [Compound 172-11-OPiv, 7-(3-Acetyl-5-chloro-2,6-dihydroxy-4-methylphenyl)heptyl pivalate]
- IC50 [1]: 8 nM
- MIC (T. b. rhodesiense IL1501; [2]): 19 nM
- MIC (T. b. rhodesiense IL1501; [3]): 540 nM

SMILES: Cc1c(Cl)c(O)c(CCCCCCC(C)COC(=O)C(C)(C)C)c(O)c1C=O (stereo not drawn) [Compound 279-12-OPiv, 8-(3-Chloro-5-formyl-2,6-dihydroxy-4-methylphenyl)-2-methyloctyl pivalate]
- IC50 [1]: 0.41 nM

SMILES: CCOC(=O)CCCCCCCCCc1c(O)c(Cl)c(C)c(C=O)c1O [Compound 215-13-COOEt, Ethyl 10-(3-chloro-5-formyl-2,6-dihydroxy-4-methylphenyl)decanoate]
- IC50 [1]: 0.2 nM
- MIC (T. b. rhodesiense IL1501; [2]): 2 nM
- MIC (T. b. rhodesiense IL1501; [3]): 24 nM

SMILES: C/C(=C\COC(=O)C(C)C)CC/C(C)=C/Cc1c(O)c(Cl)c(C)c(C=O)c1O [Compound 287-12-OCOiPr, (2E,6E)-8-(3-Chloro-5-formyl-2,6-dihydroxy-4-methylphenyl)-3,6-dimethyl-2,6-octadienyl isobutylate]
- IC50 [1]: 0.26 nM

SMILES: CCCCC/C(C)=C/COc1cc(O)c(C(C)=O)c(C)c1Cl [Compound 270-8, (E)-3-Chloro-6-hydroxy-2-methyl-(3-methyl-2-octenoxy)acetophenone]
- IC50 [1]: 300 nM
- MIC (T. b. rhodesiense IL1501; [2]): 3700 nM
- MIC (T. b. rhodesiense IL1501; [3]): 9200 nM

SMILES: CC(C)=CCC/C(C)=C/Cc1c(O)ccc(C=O)c1O [Compound 217, (E)-2,4-Dihydroxy-3-(3,7-dimethyl-2,6-octadienyl)benzaldehyde]
- melting point: 85 °C

SMILES: COC(=O)c1ccc(O)c(C/C=C(\C)CCC=C(C)C)c1O [Compound 161, Methyl (E)-3-(3,7-Dimethyl-2,6-octadienyl)-2,4-dihydroxybenzoate]
- melting point: 62 °C

SMILES: COC(=O)c1c(C)cc(O)c(C/C=C(\C)CCC=C(C)C)c1O [Compound 146, Methyl (E)-3-(3,7-Dimethyl-2,6-octadienyl)-2,4-dihydroxy-6-methylbenzoate]
- melting point: 46 to 47 °C

SMILES: CCCCCC(C)CCc1c(O)c(Cl)c(C)c(C(C)=O)c1O (stereo not drawn) [Compound 269-8, 3-Chloro-4,6-dihydroxy-2-methyl-5-(3-methyloctyl)acetophenone]
- IC50 [1]: 2.5 nM
- MIC (T. b. rhodesiense IL1501; Glycerol (+), final concentration of glycerol of 5 mM): 70 nM
- MIC (T. b. rhodesiense IL1501; Glycerol (−)): 500 nM

SMILES: C/C(=C\Cc1c(O)c(Cl)c(C)c(C=O)c1O)CC/C=C(\C)COC1CCCCO1 (stereo not drawn) [Compound 236-13-OTHP, 3-Chloro-5-[(2E,6E)-3,7-dimethyl-8-(tetrahydropyran-2-yloxy)-2,6-octadienyl]-4,6-dihydroxy-2-methylbenzaldehyde]
- IC50 [1]: 0.2 nM

SMILES: C/C(=C\Cc1c(O)c(Cl)c(C)c(CO)c1O)CC/C=C(\C)COC(=O)C(C)(C)C [Compound 503-OPiv, (2E,6E)-8-(3-Chloro-2,6-dihydroxy-5-hydroxymethyl-4-methylphenyl)-2,6-dimethyl-2,6-octadienyl pivalate]
- IC50 [1]: 0.3 nM

SMILES: CC(C)=CCC/C(C)=C/Cc1c(O)cc(C)c(C=O)c1O [Compound 216, (E)-2,4-Dihydroxy-3-(3,7-dimethyl-2,6-octadienyl)-6-methylbenzaldehyde]
- melting point: 120 to 121 °C

SMILES: Cc1c(Cl)c(O)c(CCC(C)CCCCCOC(=O)C(C)(C)C)c(O)c1C=O (stereo not drawn) [Compound 290-12-OPiv, 8-(3-Chloro-5-formyl-2,6-dihydroxy-4-methylphenyl)-6-methyloctyl pivalate]
- IC50 [1]: 0.3 nM

SMILES: CC(=O)c1c(C)c(Cl)c(O)c(C/C=C(\C)CC/C=C(\C)COC(=O)C(C)(C)C)c1O [Compound 175-12-OPiv, (2E,6E)-8-(5-Acetyl-3-chloro-2,6-dihydroxy-4-methylphenyl)-2,6-dimethyl-2,6-octadienyl pivalate]
- IC50 [1]: 0.7 nM
- MIC (T. b. rhodesiense IL1501; [2]): 1.4 nM
- MIC (T. b. rhodesiense IL1501; [3]): 10 nM

SMILES: Cc1c(Cl)c(O)c(/C=C/CCCCCOC(=O)C(C)(C)C)c(O)c1C=O [Compound 200-11-OPiv, (E)-7-(3-Chloro-5-formyl-2,6-dihydroxy-4-methylphenyl)-6-heptenyl pivalate]
- IC50 [1]: 0.53 nM
- MIC (T. b. rhodesiense IL1501; [2]): 0.8 nM
- MIC (T. b. rhodesiense IL1501; [3]): 22 nM

SMILES: COC(=O)CCCCCCC/C=C/c1c(O)c(Cl)c(C)c(C=O)c1O [Compound 200-12-COOMe, (E)-Methyl 10-(3-chloro-5-formyl-2,6-dihydroxy-4-methylphenyl)-10-decenoate]
- IC50 [1]: 0.5 nM
- MIC (T. b. rhodesiense IL1501; [2]): 33 nM
- MIC (T. b. rhodesiense IL1501; [3]): 120 nM

SMILES: Cc1c(Cl)c(O)c(/C=C/CCCCCCOC(=O)C(C)C)c(O)c1C=O [Compound 200-12-OCOiPr, (E)-8-(3-Chloro-5-formyl-2,6-dihydroxy-4-methylphenyl)-7-octenyl isobutylate]
- IC50 [1]: 0.75 nM

SMILES: Cc1c(Cl)c(O)c(/C=C/CCCCCC2CC(=O)C(C)(C)O2)c(O)c1C=O (stereo not drawn) [Compound 249, 3-Chloro-4,6-dihydroxy-2-methyl-5-[(E)-7-(5,5-dimethyl-4-oxo-tetrahydrofuran-2-yl)-1-heptenyl]benzaldehyde]
- IC50 [1]: 1 nM
- MIC (T. b. rhodesiense IL1501; [2]): 18 nM
- MIC (T. b. rhodesiense IL1501; [3]): 74 nM

SMILES: Cc1c(Cl)c(O)c(CCCCCCCCCC(=O)C(C)(C)C)c(O)c1C=O [Compound 215-12-Piv, 3-Chloro-4,6-dihydroxy-5-(11,11-dimethyl-10-oxo-dodecyl)-2-methylbenzaldehyde]
- IC50 [1]: 0.4 nM

SMILES: C/C(=C\CC/C=C/Cc1c(O)c(Cl)c(C)c(C=O)c1O)COC(=O)C(C)(C)C [Compound 278-12-OPiv, (2E,6E)-8-(3-Chloro-5-formyl-2,6-dihydroxy-4-methylphenyl)-2-methyl-2,6-octadienyl pivalate]
- IC50 [1]: 0.26 nM

SMILES: CCOC(=O)CCCCCCCc1c(O)c(Cl)c(C)c(C=O)c1O [Compound 215-11-COOEt, Ethyl 8-(3-chloro-5-formyl-2,6-dihydroxy-4-methylphenyl)octanoate]
- IC50 [1]: 0.5 nM
- MIC (T. b. rhodesiense IL1501; [2]): 8.5 nM
- MIC (T. b. rhodesiense IL1501; [3]): 48 nM

SMILES: CCCCC/C(C)=C/Cc1c(O)c(Cl)c(C)c(C=O)c1O [Compound 264-8, (E)-3-Chloro-4,6-dihydroxy-2-methyl-5-(3-methyl-2-octenyl)benzaldehyde]
- IC50 [1]: 0.06 nM
- MIC (T. b. rhodesiense IL1501; [2]): 0.002 nM
- MIC (T. b. rhodesiense IL1501; [3]): 0.18 nM

SMILES: COC(C)(C)CCC/C(C)=C/Cc1c(O)c(Cl)c(C)c(C=O)c1O [Compound 231-9-OMe, 3-Chloro-4,6-dihydroxy-5-[(E)-7-methoxy-3,7-dimethyl-2-octeny]-2-methylbenzaldehyde]
- IC50 [1]: 0.29 nM

SMILES: C/C(=C\Cc1c(O)c(Cl)c(C)c(C=O)c1O)CCCCOC(=O)C(C)(C)C [Compound 264-11-OPiv, (5E)-7-(3-Chloro-5-formyl-2,6-dihydroxy-4-methylphenyl)-5-methyl-5-heptenyl pivalate]
- IC50 [1]: 0.22 nM

SMILES: CC(=O)c1c(C)c(Cl)c(O)c(C/C=C(\C)CC/C=C(\C)C(C)O)c1O (stereo not drawn) [Compound 286-9-OH, (2E,6E)-3-Chloro-4,6-dihydroxy-2-methyl-5-(8-hydroxy-3′,7′-dimethyl-2′,6′-nonadienyl)acetophenone]
- IC50 [1]: 7.1 nM
